# Experimental data: patent publication US7855290B2, “Pyridine derivatives and pyrimidine derivatives (3)” (Eisai R&D Management Co., Ltd., priority 2005, dated 2010)
# Assays:
# [1] = target: T1, His6-HGFR (HGFR cytoplasmic domain) (Homo sapiens, UniProt P08581); assay: Inhibitory activity against HGFR tyrosine kinase activity (HTRF); format: biochemical; conditions: biotin-poly(GT), ATP, 30° C. 10 min
# T1 construct: made in house; host or cells: Sf9 insect cells (Spodoptera frugiperda), baculovirus, pFastBac-HT vector
# T1 sequence (P08581 956-1390 limits assumed): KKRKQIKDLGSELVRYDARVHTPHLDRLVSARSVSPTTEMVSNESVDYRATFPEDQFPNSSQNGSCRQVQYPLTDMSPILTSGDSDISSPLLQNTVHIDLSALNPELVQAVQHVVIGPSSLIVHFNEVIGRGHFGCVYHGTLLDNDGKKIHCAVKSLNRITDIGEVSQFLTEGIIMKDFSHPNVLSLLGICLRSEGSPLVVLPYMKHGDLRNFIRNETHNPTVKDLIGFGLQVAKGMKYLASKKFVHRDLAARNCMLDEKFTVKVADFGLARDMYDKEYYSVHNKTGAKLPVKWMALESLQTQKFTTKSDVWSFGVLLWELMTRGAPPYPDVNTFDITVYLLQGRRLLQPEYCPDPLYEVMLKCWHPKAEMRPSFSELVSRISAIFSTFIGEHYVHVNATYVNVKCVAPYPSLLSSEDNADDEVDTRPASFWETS
# Excerpt: The cytoplasmic domain of HGFR (Genbank Accession No. J02958) is a 1.3 kb DNA fragment beginning with Lys974 and including a stop codon, and described by Park et al. (Proc. Natl. Acad. Sci. U.S.A. 84(18), 6379-6383, 1987). The DNA fragment was isolated from the human placental cDNA library (purchased from Clontech) by PCR (TaKaRa Ex Taq™ Kit, purchased from TaKaRa) using two kinds of primers (SEQ ID NO: 1,5′-[…]-3′ and SEQ ID NO: 2,5′-[…]-3′, purchased from Invitrogen). The DNA fragment was cloned into a baculovirus transplace vector (pFastBac™-HT (purchased from GIBCO BRL)) to produce a recombinant construct. […] EGFR was purchased from Sigma (Production No. E-2645).
# To the suspension of Sf9 cells (3×10^8 cells) in SF-900II medium (purchased from Invitrogen) containing 2% FBS was added a solution of HGFR transfected baculovirus above (4 ml), followed by a shaking culture at 27° C. for 48 hrs. The cells infected with the HGFR transfected baculovirus were centrifuged at 1,000 rpm, 4° C. for 5 min to remove the supernatant. The precipitated infected cells were suspended in 80 ml of ice-cold PBS, and centrifuged at 1,000 rpm, 4° C. for 5 min to remove the supernatant. The precipitated infected cells were suspended in 40 ml of ice-cold Lysis Buffer (50 mM Tris-HCl (pH 8.5), 5 mM 2-mercaptoethanol, 100 mM KCl, 1 mM PMSF and 1% (v/v) NP-40). The suspension was centrifuged at 12,000 rpm, 4° C. for 30 min to provide a supernatant.
# The supernatant was loaded onto an Ni-NTA agarose column (3 ml, purchased from Qiagen) equilibrated with 30 ml of Buffer A (20 mM Tris-HCl (pH 8.5), 5 mM 2-mercaptoethanol, 500 mM KCl, 20 mM imidazole and 10% (v/v) glycerol). The column was washed with 30 ml of Buffer A, 6 ml of Buffer B (20 mM Tris-HCl (pH 8.5), 5 mM 2-mercaptoethanol, 1 M KCl, and 10% (v/v) glycerol) and 6 ml of Buffer A in this order. Then, the column was eluted with 6 ml of Buffer C (20 mM Tris-HCl (pH 8.5), 5 mM 2-mercaptoethanol, 100 mM KCl, 100 mM imidazole, and 10% (v/v) glycerol) to provide a fraction. The fraction was entrapped in a dialysis membrane (purchased from Spectrum Laboratories), dialyzed at 4° C. overnight with 1 L of dialysis buffer (20 mM Tris-HCl (pH 7.5), 10% (v/v) glycerol, 1 mM dithiothreitol, 0.1 mM Na3VO4 and 0.1 mM EGTA), and stored at −80° C. until used. […] The VEGFR2 cytoplasmic domain, the FGFR1 cytoplasmic domain, and the PDGFRβ cytoplasmic domain were fused with six histidine at the N terminus by the similar method to produce respective recombinant proteins (His6-VEGFR2, His6-FGFR1, and His6-PDGFRβ).
# To each well of a 96-well round plate (purchased from NUNC, Production No. 163320) were added 10 μl of a solution for kinase reaction (200 mM Hepes (pH 7.4), 80 mM MgCl2, 16 mM MnCl2 and 2 mM Na3VO4), 250 ng of biotinylated poly(Glu4: Tyr1) (biotin-poly(GT), purchased from Japan Schering) (6 μl, 15-fold diluted with distilled water), 30 ng of His6-HGFR (10 μl, 60-fold diluted with 0.4% BSA) and a test substance dissolved in dimethylsulfoxide (4 μl, 100-fold diluted with 0.1% BSA) to mess up to 30 μl. To the well was added 10 μl of 4 μM ATP (purchased from Sigma) diluted with distilled water to incubate at 30° C. for 10 min, followed by adding 10 μl of 500 mM EDTA (pH 8.0) (purchased from Wako Pure Chemicals) to provide a kinase reaction solution.
# The tyrosine-phosphorylated biotin-poly(GT) was detected using the Homogenous Time-Resolved Fluorescence (HTRF) method (Analytical Biochemistry, 269, 94-104, 1999).
# [2] = target: T2, HGFR (Homo sapiens, UniProt P08581); assay: Inhibitory activity against the HGFR autophosphorylation using ELISA (MKN-45 cells); format: cell-based; conditions: 1 hr with test substance
# T2 construct: endogenous in cells; host or cells: MKN-45 human gastric cancer cells
# T2 sequence (P08581 25-1390): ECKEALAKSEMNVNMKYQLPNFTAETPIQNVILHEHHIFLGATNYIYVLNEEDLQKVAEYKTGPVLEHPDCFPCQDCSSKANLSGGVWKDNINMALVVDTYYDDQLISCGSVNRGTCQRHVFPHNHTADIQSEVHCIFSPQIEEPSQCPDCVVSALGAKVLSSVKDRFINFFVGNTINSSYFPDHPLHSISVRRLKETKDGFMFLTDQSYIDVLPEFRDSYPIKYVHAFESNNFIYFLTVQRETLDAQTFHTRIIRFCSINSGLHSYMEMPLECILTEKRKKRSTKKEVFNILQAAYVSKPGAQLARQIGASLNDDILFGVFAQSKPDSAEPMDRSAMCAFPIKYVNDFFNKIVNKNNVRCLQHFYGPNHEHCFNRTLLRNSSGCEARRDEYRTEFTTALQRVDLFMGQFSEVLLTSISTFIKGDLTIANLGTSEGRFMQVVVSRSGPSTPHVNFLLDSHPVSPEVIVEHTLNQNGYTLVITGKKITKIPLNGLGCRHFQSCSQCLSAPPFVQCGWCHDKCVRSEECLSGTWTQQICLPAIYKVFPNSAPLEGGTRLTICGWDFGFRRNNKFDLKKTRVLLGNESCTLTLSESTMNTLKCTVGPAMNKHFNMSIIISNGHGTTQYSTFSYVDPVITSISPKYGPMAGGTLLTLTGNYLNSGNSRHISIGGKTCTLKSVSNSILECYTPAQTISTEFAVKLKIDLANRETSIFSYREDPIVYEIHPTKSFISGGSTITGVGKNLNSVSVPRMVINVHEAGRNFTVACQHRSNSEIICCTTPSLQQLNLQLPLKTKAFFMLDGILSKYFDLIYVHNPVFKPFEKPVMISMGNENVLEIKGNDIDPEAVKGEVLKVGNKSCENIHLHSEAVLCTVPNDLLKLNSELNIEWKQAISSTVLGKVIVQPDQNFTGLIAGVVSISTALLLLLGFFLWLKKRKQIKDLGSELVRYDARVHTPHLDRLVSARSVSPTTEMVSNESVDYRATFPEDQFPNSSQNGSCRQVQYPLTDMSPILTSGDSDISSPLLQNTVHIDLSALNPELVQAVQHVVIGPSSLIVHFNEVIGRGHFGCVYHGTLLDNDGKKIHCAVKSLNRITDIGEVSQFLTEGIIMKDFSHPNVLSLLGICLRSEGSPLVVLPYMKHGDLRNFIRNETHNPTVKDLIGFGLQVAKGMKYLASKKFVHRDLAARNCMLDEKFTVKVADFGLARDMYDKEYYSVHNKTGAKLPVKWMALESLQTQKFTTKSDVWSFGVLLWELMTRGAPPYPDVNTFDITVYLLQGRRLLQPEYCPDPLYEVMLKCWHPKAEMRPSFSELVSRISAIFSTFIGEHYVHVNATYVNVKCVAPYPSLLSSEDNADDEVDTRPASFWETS
# Experimental: Human gastric cancer cells (MKN-45) were suspended in a 1% FBS-containing RPMI1640 medium (purchased from Sigma). The cell suspension (1×10^5 cells/ml) was put in a 96-well plate for cell culture (purchased from NUNC, Production No. 167008) at 0.1 ml/well, and then cultured in a 5% CO2 incubator (37° C.) overnight. After the culture, from each well was removed the supernatant, followed by adding 0.05 ml of a 1% FBS-containing RPMI1640 medium. Then, the well was supplied with 0.05 ml of the test substance dissolved in dimethyl sulfoxide (diluted with a 1% FBS-containing RPMI1640 medium), followed by culturing in a 5% CO2 incubator (37° C.) for 1 hr. From each well was removed the supernatant, and each well was washed with 150 μl of PBS, followed by adding 100 μl of a lysis buffer (50 mM Hepes (pH 7.4), 150 mM NaCl, 10% (v/v) glycerol, 1% Triton X-100, 1.5 mM MgCl2, 1 mM EDTA (pH 8.0), 100 mM NaF, 1 mM PMSF, 10 μg/ml Aprotinin, 50 μg/ml Leupeptin, 1 μg/ml Pepstatin A and 1 mM Na3VO4). The plate was shaken at 4° C. for 1 hr to prepare the cell extract.
# To a 96-well plate for ELISA (purchased from COSTAR, Production No. 3369) was added 50 μl of 60 mM bicarbonate buffer (pH 9.6) containing 50 μg/ml of an anti-phosphotyrosine antibody (PY20, purchased from Transduction Laboratory, Production No. P-11120). The plate was incubated at 4° C. overnight.
# Each well of the plate prepared in 2. was washed three times with 200 μl of PBS, and supplied with 150 μl of 3% BSA/PBS, followed by incubating at room temperature for 2 hrs. Each well was washed three times with 200 μl of PBS, and supplied with 50 μl of the above cell extract, followed by incubating at 4° C. overnight. After the incubation, each well was washed three times with 250 μl of a washing solution (0.1% BSA, 20 mM Tris-HCl (pH 7.6), 137 mM NaCl, and 0.05% Tween-20), and supplied with 70 μl of anti-HGFR antibody (h-Met(C-12), purchased from Santa Cruz, Production No. sc-10) 2,000-fold diluted with a reaction solution (1% BSA, 20 mM Tris-HCl (pH 7.6), 137 mM NaCl and 0.05% Tween-20), followed by incubating at room temperature for 1 hr. The well was washed three times with 250 μl of the washing solution, and supplied with 70 μl of peroxidase-labelled anti-rabbit IgG antibody (purchased from Cell Signaling, Production No. 7074) 2,000-fold diluted with the reaction solution, followed by incubating at room temperature for 1 hr. Each well was washed three times with 250 μl of the washing solution, and supplied with 70 μl of TMB Membrane Peroxidase Substrate (purchased from Funakoshi, Production No. 50-5077-03), followed by incubating at room temperature for 10 min. Each well was supplied with 70 μl of 1 M phosphoric acid, and using the Plate Reader MTP-500 (Corona Electric), the absorbance of the well was instantly determined at a measurement wavelength of 450 nm. While defining the absorbance of a well supplied with the cell extract having no test substance as 100% HGFR autophosphorylation activity, and the absorbance of a well supplied with 50 μl of the lysis buffer as 0% HGFR autophosphorylation activity, the HGFR autophosphorylation activity (%) was calculated for each well.
# [3] = tested on: Human gastric cancer cells (MKN-45); assay: Inhibitory activity against the proliferation of human gastric cancer cells (MKN-45); format: cell-based; conditions: 72 h, MKN-45, 1% FBS RPMI1640, 3 days, Cell Counting Kit-8
# Experimental: Human gastric cancer cells (MKN-45) were suspended in a 1% FBS-containing RPMI1640 medium (purchased from Sigma). The cell suspension (1×10^4 cells/ml) was added in a 96-well plate for cell culture (purchased from NUNC, Production No. 167008) at 0.1 ml/well, and then cultured in a 5% CO2 incubator (37° C.) overnight. After the culture, each well was supplied with 0.1 ml of a test substance diluted with a 1% FBS-containing RPMI1640 medium, followed by culturing in a 5% CO2 incubator (37° C.) for 3 days. After the culture, each well was supplied with 10 μl of Cell Counting Kit-8 (purchased from DOJINDO, Production No. 343-07623), followed by incubation in a 5% CO2 incubator (37° C.) for about 1.5 hrs. After the incubation, using the Plate Reader MTP-500 (Corona Electric), the absorbance of each well was determined at a measurement wavelength of 450 nm and a reference wavelength of 660 nm.
Compound,IC50 [1],IC50 [2],IC50 [3]
"CN1CCC(N(C)C(=O)Nc2cc(Oc3ccc(NC(=O)C4(C(=O)NCC(C)(C)C)CC4)c(F)c3)ccn2)CC1 [Example 53, N-(2,2-Dimethylpropyl)-N′-(2-fluoro-4-{[2-({[methyl(1-methylpiperidin-4-yl)amino]carbonyl}amino)pyridin-4-yl]oxy}phenyl)cyclopropane-1,1-dicarboxamide]",270 nM,370 nM,–
"CN1CCC(N(C)C(=O)Nc2cc(Oc3ccc(NC(=O)C4(C(=O)Nc5cccnc5)CC4)c(F)c3)ccn2)CC1 [Example 51, N-(2-Fluoro-4-{[2-({[methyl(1-methylpiperidin-4-yl)amino]carbonyl}amino)pyridin-4-yl]oxy}phenyl)-N′-pyridin-3-ylcyclopropane-1,1-dicarboxamide]",250 nM,380 nM,–
"CN(C)CC1CCN(C(=O)Nc2cc(Oc3ccc(NC(=O)C4(C(=O)Nc5ccc(F)cc5)CCC4)cc3F)ccn2)CC1 [Example 6, N-[4-({2-[({4-[(Dimethylamino)methyl]piperidin-1-yl}carbonyl)amino]pyridin-4-yl}oxy)-3-fluorophenyl]-N′-(4-fluorophenyl)cyclobutane-1,1-dicarboxamide]",640 nM,–,–
"O=C(Nc1cc(Oc2cc(F)c(NC(=O)C3(C(=O)Nc4ccc(F)cc4)CC3)cc2F)ccn1)N1CC(O)C1 [Example 91, N-[2,5-Difluoro-4-[(2-{[(3-hydroxyazetidin-1-yl)carbonyl]amino}pyridin-4-yl)oxy]phenyl}1-N′-(4-fluorophenyl)cyclopropane-1,1-dicarboxamide]",–,–,5 nM
"CN1CCC(N(C)C(=O)Nc2cc(Oc3ccc(NC(=O)C4(C(=O)NC5CCCC5)CC4)c(F)c3)ccn2)CC1 [Example 52, N-Cyclopentyl-N′-(2-fluoro-4-{[2-({[methyl(1-methylpiperidin-4-yl)amino]carbonyl}amino)pyridin-4-yl]oxy}phenyl)cyclopropane-1,1-dicarboxamide]",160 nM,170 nM,–
"CN1CCC(N(C)C(=O)Nc2cc(Oc3ccc(NC(=O)C4(C(=O)NCc5ccccc5)CC4)c(F)c3)ccn2)CC1 [Example 49, N-Benzyl-N′-(2-fluoro-4-{[2-({[methyl(1-methylpiperidin-4-yl)amino]carbonyl}amino)pyridin-4-yl]oxy}phenyl)cyclopropane-1,1-dicarboxamide]",180 nM,260 nM,–
CN1CCC(N(C)C(=O)Nc2cc(Oc3cc(F)c(NC(=O)C4(C(=O)Nc5ccc(F)cc5)CC4)cc3F)ccn2)CC1 [Example 94],–,–,4.9 nM
